Results published in PMC8536830 (Current Biology, 2021).
Several values for one entry are separate records, joined by “and”; a condition that tells them apart may be missing. Equal values may be shown once.

Tests used:
Format in all cases: cell-based, C. elegans
LGC-56 [1] = target: T1, LGC-56 (Caenorhabditis elegans, UniProt Q10052); test: Two-electrode voltage clamp, antagonist inhibitory dose response in Xenopus oocytes expressing LGC-56; settings: for IC50: Xenopus oocytes, TEVC, agonist constant at its EC50, Hill equation, three-parameter slope; for Block of LGC-56 currents by antagonist: agonist at EC50
Experimental: (§1) We also investigated the antagonist profiles of three potential antagonists: mecamylamine; spiperone; and picrotoxin. These antagonists target different binding sites and have different specificity for vertebrate receptors.
(§2) Defolliculated Xenopus laevis oocytes were obtained from EcoCyte Bioscience (Dortmund, Germany) and maintained in ND96 (in mM: 96 NaCl, 1 MgCl2, 5 HEPES, 1.8 CaCl2, 2 KCl) solution at 16°C for 3-5 days.
(§3) 5'-capped cRNA was synthesized in vitro using the T3 mMessage mMachine transcription kit according to manufacturer’s protocol (Thermo Fischer Scientific, CA, USA). RNA was then purified using the GeneJET RNA purification kit (Thermo Fischer Scientific, CA, USA) prior to cRNA injection. Defolliculated Xenopus oocytes were placed individually into 96 well plates and injected with 50nL of 500ng/μL RNA using the Roboinject system (Multi Channel Systems GmbH, Reutlingen, Germany). When two constructs were injected the total RNA concentration remained 500ng/μL, with a 1:1 ratio of the components. Injected oocytes were incubated at 16°C in ND96 until the day of recording, typically between 3-5 days post injection.
(§4) Two-electrode voltage clamp recordings were carried out using the Robocyte2 recording system or a manual TEVC set up, using an OC-725D amplifier (Multi Channel Systems, Reutlingen, Germany) and paired with a custom-made recording chamber and agar bridges from reference and bath electrodes. Glass electrodes were pulled on a P-1000 Micropipette Puller (Sutter, Ca, USA) with a resistance ranging from 0.7-2 MΩ, pipettes, containing AgCl wires, were backfilled with a 3 M KCl solution for manual recordings and 1.5M KCl and 1 M acetic acid for Robocyte2 recordings. Oocytes were clamped at −60mV unless stated otherwise. Continuous recordings were taken during application of agonists and antagonists at 500 Hz. Data was recorded using WinWCP or RoboCyte2 control software, manual data was filtered at 10 Hz.
(§5) Dose response curves were calculated from the peak current during a 10 s agonist stimulation in ND96 solution, with a 60 s ND96 wash in between doses. Data was gathered over at least two occasions, using different batches of oocytes. Normalized dose response data was fitted to a nonlinear curve using a four parameters variable slope and the EC50 and Hill slope was calculated. All further recordings were carried out with the agonist at its EC50 concentration unless stated otherwise. Ion selectivity was determined using a voltage ramp protocol of 20mV/s ranging from −80mV to +60mV in the presence or absence of the primary agonist in three different solutions: ND96, NMDG (Na^+ free) and Na Gluconate (low Cl^-) solutions. Normalized ramp curves were fitted to a linear regression line and the x intercept was compared between solutions to calculate an average Erev from 4-5 oocytes. Antagonist dose response curves were calculated from the peak current during a 10 s agonist + antagonist stimulation in ND96 solution, with the agonist concentration remaining constant. Repeated agonist stimulus protocols were carried out by measuring the peak current during a 10 s agonist stimulation at three wash intervals, 10 s, 30 s and 60 s. Kinetic measurements were calculated from a 60 s agonist perfusion. Python scripts for TEVC analysis can be found at on GitHub at hiris25/TEVC-analysis-scripts and on Zenodo https://doi.org/10.5281/zenodo.5095181.
(§6) Dose response and antagonist response curves were generated using custom-built python scripts (key resources table), which combined data from multiple recordings and normalized data by calculating I/Imax for each oocyte. Normalized mean, SD and n numbers where then imported into GraphPad where data was plotted and EC50 or IC50 values were calculated by fitting to the Hill equation using either three or four parameter slopes to obtain the highest degree of fit.

LGC-54 [2] = target: T2, LGC-54 (Caenorhabditis elegans, UniProt O17041); test: Two-electrode voltage clamp, antagonist inhibitory dose response in Xenopus oocytes expressing LGC-54; settings: for IC50: Xenopus oocytes, TEVC, agonist constant at its EC50, Hill equation, three-parameter slope; for Block of LGC-54 currents by antagonist: agonist at EC50
Experimental: as §1, §2, §3, §4, §5, §6

LGC-56 [3] = target: T1, LGC-56; test: Two-electrode voltage clamp, agonist-evoked currents in Xenopus oocytes expressing LGC-56; settings: for EC50: Xenopus oocytes, TEVC, current normalized to Imax, Hill equation with variable slope, read-out: EC50, agonist-evoked dose response, LGC-56; for Channel activation in ligand screen, LGC-56: ligands screened at 100 μM, oocytes clamped at −60 mV
Excerpt: (§7) We aimed to deorphanize C. elegans LGICs without known ligands, focusing on 5 genes in the putative monoamine-gated group: lgc-50; lgc-51; lgc-52; lgc-54; and lgc-56 (previously named ggr-3). Using heterologous overexpression in Xenopus oocytes and two-electrode voltage clamp recordings, we measured channel activity evoked by application of 11 monoamines and other neurotransmitters.
as §2, §3, §4
as §5, with “Python scripts for TEVC analysis can be found at on GitHub at hiris25/TEVC-analysis-scripts and on Zenodo https://doi.org/10.5281/zenodo.5095181.” left out

LGC-50 = target: T3, LGC-50 (Caenorhabditis elegans, UniProt P41849); test: Two-electrode voltage clamp, agonist-evoked currents in Xenopus oocytes expressing LGC-50; settings: ligands screened at 100 μM, oocytes clamped at −60 mV
T3 construct: lgc-50 ORF F […]; expressed in transfected cells; host or cells: Xenopus laevis oocytes injected with cRNA (plasmid pJML002, KSM: lgc-50 cDNA)
T3 sequence (P41849 20-491): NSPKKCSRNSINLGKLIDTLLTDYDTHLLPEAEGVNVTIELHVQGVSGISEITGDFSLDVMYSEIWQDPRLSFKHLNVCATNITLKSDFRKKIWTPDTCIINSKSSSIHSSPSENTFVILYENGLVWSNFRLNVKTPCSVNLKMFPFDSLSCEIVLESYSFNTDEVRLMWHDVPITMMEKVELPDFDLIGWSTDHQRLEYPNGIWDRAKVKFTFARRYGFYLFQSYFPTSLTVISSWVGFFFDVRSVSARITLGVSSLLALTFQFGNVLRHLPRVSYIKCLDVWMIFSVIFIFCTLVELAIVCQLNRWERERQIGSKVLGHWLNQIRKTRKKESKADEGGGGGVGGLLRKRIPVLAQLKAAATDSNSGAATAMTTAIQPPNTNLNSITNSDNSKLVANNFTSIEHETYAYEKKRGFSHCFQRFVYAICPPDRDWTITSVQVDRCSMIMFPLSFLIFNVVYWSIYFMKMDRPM
Excerpt: as §7, §2
5'-capped cRNA was synthesized in vitro using the T3 mMessage mMachine transcription kit according to manufacturer’s protocol (Thermo Fischer Scientific, CA, USA). RNA was then purified using the GeneJET RNA purification kit (Thermo Fischer Scientific, CA, USA) prior to cRNA injection. […]
(§8) Two-electrode voltage clamp recordings were carried out using the Robocyte2 recording system or a manual TEVC set up, using an OC-725D amplifier (Multi Channel Systems, Reutlingen, Germany) and paired with a custom-made recording chamber and agar bridges from reference and bath electrodes. […] Data was recorded using WinWCP or RoboCyte2 control software, manual data was filtered at 10 Hz.
Dose response curves were calculated from the peak current during a 10 s agonist stimulation in ND96 solution, with a 60 s ND96 wash in between doses. […] Normalized dose response data was fitted to a nonlinear curve using a four parameters variable slope and the EC50 and Hill slope was calculated. […] Ion selectivity was determined using a voltage ramp protocol of 20mV/s ranging from −80mV to +60mV in the presence or absence of the primary agonist in three different solutions: ND96, NMDG (Na^+ free) and Na Gluconate (low Cl^-) solutions. […] Antagonist dose response curves were calculated from the peak current during a 10 s agonist + antagonist stimulation in ND96 solution, with the agonist concentration remaining constant. […] Kinetic measurements were calculated from a 60 s agonist perfusion. […]

LGC-51/52 [4] = target: T4, LGC-51/52 (Caenorhabditis elegans, UniProt Q9NA62+X5LVB0); test: Two-electrode voltage clamp, antagonist inhibitory dose response in Xenopus oocytes expressing LGC-51/52
Experimental: as §1, §2
5'-capped cRNA was synthesized in vitro using the T3 mMessage mMachine transcription kit according to manufacturer’s protocol (Thermo Fischer Scientific, CA, USA). […]
as §8
Dose response curves were calculated from the peak current during a 10 s agonist stimulation in ND96 solution, with a 60 s ND96 wash in between doses. […] Normalized dose response data was fitted to a nonlinear curve using a four parameters variable slope and the EC50 and Hill slope was calculated. […] Kinetic measurements were calculated from a 60 s agonist perfusion. […]

LGC-52 = LGC-52 (Caenorhabditis elegans, UniProt Q9NA62); test: Two-electrode voltage clamp, agonist-evoked currents in Xenopus oocytes expressing LGC-52; settings: for EC50: Xenopus oocytes, TEVC, current normalized to Imax, Hill equation with variable slope, read-out: EC50, agonist-evoked dose response, LGC-52; for Channel activation in ligand screen, LGC-52: ligands screened at 100 μM, oocytes clamped at −60 mV
Excerpt: as §7, §2, §3, §4
as §5, with “Python scripts for TEVC analysis can be found at on GitHub at hiris25/TEVC-analysis-scripts and on Zenodo https://doi.org/10.5281/zenodo.5095181.” left out

LGC-51/52 [5] = target: T4, LGC-51/52; test: Two-electrode voltage clamp, agonist-evoked currents in Xenopus oocytes co-expressing LGC-51 and LGC-52; settings: for Agonist-induced peak current of LGC-51/52 heteromer compared with LGC-52: 1 mM TYR or DA; for EC50: Xenopus oocytes co-expressing LGC-51 and LGC-52, TEVC, Hill equation with variable slope, read-out: EC50, agonist-evoked dose response, LGC-51/52 heteromer
Experimental: as §2, §3, §4
Dose response curves were calculated from the peak current during a 10 s agonist stimulation in ND96 solution, with a 60 s ND96 wash in between doses. Data was gathered over at least two occasions, using different batches of oocytes. Normalized dose response data was fitted to a nonlinear curve using a four parameters variable slope and the EC50 and Hill slope was calculated. All further recordings were carried out with the agonist at its EC50 concentration unless stated otherwise. Ion selectivity was determined using a voltage ramp protocol of 20mV/s ranging from −80mV to +60mV in the presence or absence of the primary agonist in three different solutions: ND96, NMDG (Na^+ free) and Na Gluconate (low Cl^-) solutions. […] Antagonist dose response curves were calculated from the peak current during a 10 s agonist + antagonist stimulation in ND96 solution, with the agonist concentration remaining constant. […] Kinetic measurements were calculated from a 60 s agonist perfusion. […]

LGC-54 [6] = target: T2, LGC-54; test: Two-electrode voltage clamp, agonist-evoked currents in Xenopus oocytes expressing LGC-54; settings: for EC50: Xenopus oocytes, TEVC, current normalized to Imax, Hill equation with variable slope, read-out: EC50, agonist-evoked dose response, LGC-54; for Channel activation in ligand screen, LGC-54: ligands screened at 100 μM, oocytes clamped at −60 mV
Excerpt: as §7, §2, §3, §4, §5
Dose response and antagonist response curves were generated using custom-built python scripts (key resources table), which combined data from multiple recordings and normalized data by calculating I/Imax for each oocyte.

T2 sequence (O17041 entry or part of it): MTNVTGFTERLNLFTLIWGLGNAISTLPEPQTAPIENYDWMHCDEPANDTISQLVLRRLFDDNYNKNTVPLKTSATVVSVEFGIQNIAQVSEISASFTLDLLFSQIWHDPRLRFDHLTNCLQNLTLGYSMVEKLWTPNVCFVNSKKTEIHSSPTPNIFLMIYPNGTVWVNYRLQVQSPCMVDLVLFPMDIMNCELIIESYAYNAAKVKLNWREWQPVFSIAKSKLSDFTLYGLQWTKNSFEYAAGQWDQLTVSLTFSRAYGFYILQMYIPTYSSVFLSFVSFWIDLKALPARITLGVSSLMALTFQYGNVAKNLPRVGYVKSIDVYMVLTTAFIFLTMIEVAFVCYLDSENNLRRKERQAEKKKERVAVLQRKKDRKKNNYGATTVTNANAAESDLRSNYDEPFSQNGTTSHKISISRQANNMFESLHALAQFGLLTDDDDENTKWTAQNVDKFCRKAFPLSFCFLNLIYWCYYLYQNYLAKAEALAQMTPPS
T4 sequence (X5LVB0 entry or part of it): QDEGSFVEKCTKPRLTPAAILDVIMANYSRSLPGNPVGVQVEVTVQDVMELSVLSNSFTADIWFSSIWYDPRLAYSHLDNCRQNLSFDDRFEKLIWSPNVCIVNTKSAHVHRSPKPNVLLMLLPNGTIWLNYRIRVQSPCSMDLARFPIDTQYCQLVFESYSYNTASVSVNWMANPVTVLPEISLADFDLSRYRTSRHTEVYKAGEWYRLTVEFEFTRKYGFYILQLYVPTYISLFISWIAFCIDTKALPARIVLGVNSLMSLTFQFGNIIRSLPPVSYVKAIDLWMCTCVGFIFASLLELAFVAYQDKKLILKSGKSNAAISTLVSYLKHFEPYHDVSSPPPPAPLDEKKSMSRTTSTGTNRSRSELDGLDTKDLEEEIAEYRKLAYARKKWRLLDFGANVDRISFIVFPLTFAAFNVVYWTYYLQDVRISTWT
T4 sequence (Q9NA62 entry or part of it): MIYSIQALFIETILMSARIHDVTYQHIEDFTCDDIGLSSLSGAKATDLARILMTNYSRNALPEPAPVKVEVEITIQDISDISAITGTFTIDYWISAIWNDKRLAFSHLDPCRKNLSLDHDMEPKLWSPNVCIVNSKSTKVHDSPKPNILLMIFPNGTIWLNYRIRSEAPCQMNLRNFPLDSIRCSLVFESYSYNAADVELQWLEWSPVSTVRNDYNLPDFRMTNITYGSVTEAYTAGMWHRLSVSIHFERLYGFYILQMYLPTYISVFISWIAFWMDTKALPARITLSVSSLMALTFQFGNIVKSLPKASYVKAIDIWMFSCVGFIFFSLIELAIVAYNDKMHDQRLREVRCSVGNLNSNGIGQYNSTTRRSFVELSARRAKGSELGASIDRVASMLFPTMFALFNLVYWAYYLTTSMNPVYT
Sequence of LGC-52 (Q9NA62 entry or part of it): as above
T1 sequence (Q10052 entry or part of it): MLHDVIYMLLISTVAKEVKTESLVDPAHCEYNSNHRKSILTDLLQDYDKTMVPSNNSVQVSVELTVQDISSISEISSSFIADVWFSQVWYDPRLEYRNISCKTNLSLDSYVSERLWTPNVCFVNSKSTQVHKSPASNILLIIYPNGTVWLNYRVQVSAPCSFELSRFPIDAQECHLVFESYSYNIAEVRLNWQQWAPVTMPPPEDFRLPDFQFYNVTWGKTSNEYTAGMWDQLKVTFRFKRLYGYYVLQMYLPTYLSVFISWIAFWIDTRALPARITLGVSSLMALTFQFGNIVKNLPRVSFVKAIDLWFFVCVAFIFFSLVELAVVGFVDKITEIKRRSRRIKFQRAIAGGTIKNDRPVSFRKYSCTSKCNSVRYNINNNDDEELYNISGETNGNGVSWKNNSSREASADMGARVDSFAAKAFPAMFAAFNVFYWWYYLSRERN

## picrotoxin
LGC-56 [1]
  IC50: 59 µM
  Block of LGC-56 currents by antagonist: large inhibition of currents
LGC-54 [2]
  IC50: 43 µM
  Block of LGC-54 currents by antagonist: large inhibition of currents

## NCC(O)c1ccc(O)cc1 (stereo not drawn) [octopamine]
LGC-56 [3]; 1 mM
  Response of LGC-56 at very high concentration: small response

## CNC1(C)C2CCC(C2)C1(C)C (stereo not drawn) [mecamylamine]
LGC-56 [1]
  IC50: 1 µM
  Block of LGC-56 currents by antagonist: partially blocked
LGC-54 [2]
  IC50: 114 µM and > 100 µM
  Block of LGC-54 currents by antagonist: only a partial block

## NCCc1c[nH]c2ccccc12 [tryptamine]
LGC-50
  Channel gating in ligand screen, LGC-50: gated

## O=C(CCCN1CCC2(CC1)C(=O)NCN2c1ccccc1)c1ccc(F)cc1 [Spiperone, spiperone]
LGC-56 [1]
  IC50: 127 µM
  Block of LGC-56 currents by antagonist: partial block
LGC-54 [2]
  IC50: 81 µM
  Block of LGC-54 currents by antagonist: partial block
LGC-51/52 [4]; Xenopus oocytes, TEVC, agonist constant at its EC50, Hill equation, three-parameter slope
  IC50: 170 µM
LGC-51/52 [4]; agonist at EC50
  Block of LGC-51/52 currents by antagonist: partial block

## NCCc1ccc(O)c(O)c1 [dopamine]
LGC-52
  EC50: 0.51 µM
  Channel activation in ligand screen, LGC-52: activated
LGC-52; ratio of EC50 values
  EC50 lower for dopamine than tyramine, LGC-52: 100 fold
LGC-56 [3]
  EC50: 642 µM
  Channel activation in ligand screen, LGC-56: activated
LGC-51/52 [5]
  Agonist-induced peak current of LGC-51/52 heteromer compared with LGC-52: no significant effect
  EC50: 0.81 µM
LGC-54 [6]
  EC50: 18 µM
  Channel activation in ligand screen, LGC-54: activated

## NCCc1ccc(O)cc1 [tyramine]
LGC-52
  EC50: 54 µM
  Channel activation in ligand screen, LGC-52: activated
LGC-56 [3]
  EC50: 70 µM
  Channel activation in ligand screen, LGC-56: activated
LGC-51/52 [5]
  Agonist-induced peak current of LGC-51/52 heteromer compared with LGC-52: significantly higher
  EC50: 4 µM
LGC-54 [6]
  EC50: 13 µM
  Channel activation in ligand screen, LGC-54: activated
